Test results from ChEMBL document CHEMBL2062510, “Acylphloroglucinols from Elaphoglossum crassipes: antidepressant-like activity of crassipin A” (J Nat Prod, 2012).
Calls of active or inactive are those of the source. The calls are words filed in the database; no cut-off is given here.

Experiments:
Mus musculus [1] = assay: Antidepressant activity in CF1 mouse assessed as reduction in immobility at 20 mg/kg, po measured after 60 mins by forced-swimming test; type: functional, organism-based; design: dose 20 mg/kg
Mus musculus [2] = assay: Toxicity in CF1 mouse assessed as change in number of crossing at 15 mg/kg, po measured after 60 mins by open-field test; type: organism-based; design: dose 15 mg/kg, route oral; conditions: in vivo, 1 h
Mus musculus [3] = assay: Toxicity in CF1 mouse assessed as change in number of rearing at 15 mg/kg, po measured after 60 mins by open-field test; type: organism-based; design: dose 15 mg/kg, route oral; conditions: in vivo, 1 h
Mus musculus [4] = assay: Toxicity in CF1 mouse assessed as change in number of grooming at 15 mg/kg, po measured after 60 mins by open-field test; type: organism-based; design: dose 15 mg/kg, route oral; conditions: in vivo, 1 h
Mus musculus [5] = assay: Antidepressant activity in CF1 mouse assessed as reduction in immobility at 15 mg/kg, po measured after 60 mins by forced-swimming test; type: functional, organism-based; design: dose 15 mg/kg

Compound	Activity (Mus musculus [1])	Activity (Mus musculus [2])	Activity (Mus musculus [3])	Activity (Mus musculus [4])	Activity (Mus musculus [5])
CN(C)CCCN1c2ccccc2CCc2ccccc21	Active				
CC/C=C(\OC(C)=O)C1=C(OC(C)=O)[C@](C)(C/C=C(\C)CCC=C(C)C)C(OC(C)=O)=C(Cc2c(OC(C)=O)c3c(c(C(=O)CCC)c2OC(C)=O)OC(C)(C)C=C3)C1=O		Non-toxic	Non-toxic	Non-toxic	Active
CCCC(=O)C1=C(O)[C@](C)(C/C=C(\C)CCC=C(C)C)C(O)=C(Cc2c(O)c3c(c(C(=O)CCC)c2O)OC(C)(C)C=C3)C1=O [CRASSIPIN A]		Non-toxic	Non-toxic	Non-toxic	Active
